Where two headings read alike, the source gives them in different places.
Assays:
Format in all cases: in vivo
[1] = test system: Galium (catchweed bedstraw, Galium aparine); test: Test A postemergence; conditions: Galium, post-emergence, 240 h, Postemergence; for pest or weed control at 125 g/ha: 125 g ai/ha; for pest or weed control at 500 g/ha: 500 g ai/ha, visual injury, 0 to 100 scale (0 no effect, 100 complete control), approx. 10 d
Summary of the method: (§1)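 Greenhouse, ~10 d after spray; visual injury vs untreated controls, 0 = no effect, 100 = complete control. Preemergence: directed soil spray over planted seeds. Postemergence: plants 2–10 cm, 1–2 leaf stage. Loam/sand blend. Compound in non-phytotoxic solvent with surfactant.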

Kochia (Kochia scoparia) = test: Test A postemergence; conditions: Bassia scoparia, post-emergence, 240 h, Postemergence; for pest or weed control at 125 g/ha: 125 g ai/ha; for pest or weed control at 500 g/ha: 500 g ai/ha, visual injury, 0 to 100 scale (0 no effect, 100 complete control), approx. 10 d
Summary of the method: as §1

[2] = test system: barnyardgrass (Echinochloa crus-galli); test: Test A postemergence; conditions: Echinochloa crus-galli, post-emergence, 240 h, Postemergence; for pest or weed control at 125 g/ha: 125 g ai/ha; for pest or weed control at 500 g/ha: 500 g ai/ha, visual injury, 0 to 100 scale (0 no effect, 100 complete control), approx. 10 d
Summary of the method: as §1

[3] = test system: blackgrass (Alopecurus myosuroides); test: Test A postemergence; conditions: Alopecurus myosuroides, post-emergence, 240 h, Postemergence; for pest or weed control at 125 g/ha: 125 g ai/ha; for pest or weed control at 500 g/ha: 500 g ai/ha, visual injury, 0 to 100 scale (0 no effect, 100 complete control), approx. 10 d
Summary of the method: as §1

corn (Zea mays) = test: Test A postemergence; conditions: Zea mays, post-emergence, 240 h, Postemergence; for plant injury at 125 g/ha: visual rating about 10 d after treatment, read-out: Corn plant response rating (0 to 100 scale); for Corn plant response rating (crop injury, 0 = no effect, 100 = complete kill) at 500 g/ha: 500 g ai/ha, visual injury, 0 to 100 scale (0 no effect, 100 complete control), approx. 10 d
Summary of the method: as §1

[4] = test system: giant foxtail (Setaria faberii); test: Test A postemergence; conditions: Setaria faberi, post-emergence, 240 h, Postemergence; for pest or weed control at 125 g/ha: 125 g ai/ha; for pest or weed control at 500 g/ha: 500 g ai/ha, visual injury, 0 to 100 scale (0 no effect, 100 complete control), approx. 10 d
Summary of the method: as §1

[5] = test system: pigweed (Amaranthus retroflexus); test: Test A postemergence; conditions: Amaranthus retroflexus, post-emergence, 240 h, Postemergence; for pest or weed control at 125 g/ha: 125 g ai/ha; for pest or weed control at 500 g/ha: 500 g ai/ha, visual injury, 0 to 100 scale (0 no effect, 100 complete control), approx. 10 d
Summary of the method: as §1

[6] = test system: ragweed (common ragweed, Ambrosia elatior); test: Test A postemergence; conditions: Ambrosia artemisiifolia, post-emergence, 240 h, Postemergence; for pest or weed control at 125 g/ha: 125 g ai/ha; for pest or weed control at 500 g/ha: 500 g ai/ha, visual injury, 0 to 100 scale (0 no effect, 100 complete control), approx. 10 d
Summary of the method: as §1

[7] = test system: ryegrass, Italian (Italian ryegrass, Lolium multiflorum); test: Test A postemergence; conditions: Lolium multiflorum, post-emergence, 240 h, Postemergence; for pest or weed control at 125 g/ha: 125 g ai/ha; for pest or weed control at 500 g/ha: 500 g ai/ha, visual injury, 0 to 100 scale (0 no effect, 100 complete control), approx. 10 d
Summary of the method: as §1

[8] = test system: wheat (Triticum aestivum); test: Test A postemergence; conditions: Triticum aestivum, post-emergence, 240 h, Postemergence; for plant injury at 125 g/ha: 125 g ai/ha; for plant injury at 500 g/ha: 500 g ai/ha, visual injury, 0 to 100 scale (0 no effect, 100 complete control), approx. 10 d
Summary of the method: as §1

[9] = test system: barnyardgrass (Echinochloa crus-galli); test: Test B flooded paddy test; conditions: Echinochloa crus-galli, 250 g ai/ha, Flood
Summary of the method: (§2)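 Evaluation by eye, against controls, occurred 13–15 d post-treatment in a greenhouse, using a 0 (no effect) to 100 (complete control) scale. Application was into the paddy water, 3 cm deep over the soil, on 2-leaf plants.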

[10] = test system: ducksalad (Heteranthera limosa); test: Test B flooded paddy test; conditions: Heteranthera limosa, 250 g ai/ha, Flood
Summary of the method: as §2

rice (Oryra sativa) = test: Test B flooded paddy test; conditions: Oryza sativa, 250 g ai/ha, Flood
Summary of the method: as §2

[11] = test system: sedge, umbrella (small-flower umbrella sedge, Cyperus difformis); test: Test B flooded paddy test; conditions: Cyperus difformis, 360 h, Flood, 250 g ai/ha; visually evaluated after 13 to 15 d; read-out: Plant response rating, Sedge, Umbrella (0 to 100 scale where 0 is no effect and 100 is complete control)
Summary of the method: as §2

[12] = visual rating about 10 d after treatment, read-out: Galium plant response rating (0 to 100 scale)
[13] = read-out: Plant response rating, Galium
[14] = visual rating about 10 d after treatment, read-out: Kochia plant response rating (0 to 100 scale)
[15] = read-out: Plant response rating, Kochia
[16] = visual rating about 10 d after treatment, read-out: Barnyardgrass plant response rating (0 to 100 scale, 0 no effect, 100 complete control)
[17] = read-out: Plant response rating, Barnyardgrass
[18] = visual rating about 10 d after treatment, read-out: Blackgrass plant response rating (0 to 100 scale)
[19] = read-out: Plant response rating, Blackgrass
[20] = visual rating about 10 d after treatment, read-out: Foxtail, Giant plant response rating (0 to 100 scale)
[21] = read-out: Plant response rating, Foxtail, Giant
[22] = visual rating about 10 d after treatment, read-out: Pigweed plant response rating (0 to 100 scale)
[23] = read-out: Plant response rating, Pigweed
[24] = visual rating about 10 d after treatment, read-out: Ragweed plant response rating (0 to 100 scale)
[25] = read-out: Plant response rating, Ragweed
[26] = visual rating about 10 d after treatment, read-out: Ryegrass, Italian plant response rating (0 to 100 scale)
[27] = read-out: Plant response rating, Ryegrass, Italian
[28] = visual rating about 10 d after treatment, read-out: Wheat plant response rating (0 to 100 scale)
[29] = read-out: Plant response rating, Wheat
[30] = 0 to 100 scale where 0 is no effect and 100 is complete control, read-out: Barnyardgrass plant response rating
[31] = 0 to 100 scale where 0 is no effect and 100 is complete control, read-out: Ducksalad plant response rating
[32] = 0 to 100 scale where 0 is no effect and 100 is complete control, read-out: Rice plant response rating

Structure (SMILES)	pest or weed control at 125 g/ha [1, 12] [%]	pest or weed control at 500 g/ha [1, 13] [%]	pest or weed control at 125 g/ha (Kochia (Kochia scoparia); [14]) [%]	pest or weed control at 500 g/ha (Kochia (Kochia scoparia); [15]) [%]	pest or weed control at 125 g/ha [2, 16] [%]	pest or weed control at 500 g/ha [2, 17] [%]	pest or weed control at 125 g/ha [3, 18] [%]	pest or weed control at 500 g/ha [3, 19] [%]	plant injury at 125 g/ha (corn (Zea mays); 125 g ai/ha) [%]	Corn plant response rating (crop injury, 0 = no effect, 100 = complete kill) at 500 g/ha (corn (Zea mays)) [%]	pest or weed control at 125 g/ha [4, 20] [%]	pest or weed control at 500 g/ha [4, 21] [%]	pest or weed control at 125 g/ha [5, 22] [%]	pest or weed control at 500 g/ha [5, 23] [%]	pest or weed control at 125 g/ha [6, 24] [%]	pest or weed control at 500 g/ha [6, 25] [%]	pest or weed control at 125 g/ha [7, 26] [%]	pest or weed control at 500 g/ha [7, 27] [%]	plant injury at 500 g/ha [8, 29] [%]	pest or weed control at 250 g/ha [11] [%]	other results
CN1C[C@H](c2cccc(C(C)(F)F)c2)[C@@H](C(=O)Nc2cccc(F)c2F)C1=O [Compound 1316]	60	60	30	40	90	90	70	80	80	80	90	90	50	60	30	70	50	80	80	0	plant injury at 125 g/ha [8, 28]: 60%; pest or weed control at 250 g/ha [9, 30]: 75%; pest or weed control at 250 g/ha [10, 31]: 90%; pest or weed control at 250 g/ha (rice (Oryra sativa); [32]): 0%
CN1C[C@H](c2cccc(C(F)(F)F)c2)[C@@H](C(=O)Nc2ccc(F)c(F)c2F)C1=O [Compound 1389]		70		80		100		50		90		80		70		20		80	70	0	pest or weed control at 125 g/ha ([1]; visual injury after approx. 10 d, 0 to 100 scale, 0 no effect, 100 complete control, read-out: Plant response rating, Galium): 60%; pest or weed control at 125 g/ha (Kochia (Kochia scoparia); visual injury after approx. 10 d, 0 to 100 scale, 0 no effect, 100 complete control, read-out: Plant response rating, Kochia): 60%; pest or weed control at 125 g/ha ([2]; visual injury after approx. 10 d, 0 to 100 scale, 0 no effect, 100 complete control, read-out: Plant response rating, Barnyardgrass): 90%; pest or weed control at 125 g/ha ([3]; visual injury after approx. 10 d, 0 to 100 scale, 0 no effect, 100 complete control, read-out: Plant response rating, Blackgrass): 50%; Corn plant response rating (crop injury, 0 = no effect, 100 = complete kill) at 125 g/ha (corn (Zea mays); 125 g ai/ha, visual injury after approx. 10 d, 0 to 100 scale, 0 no effect, 100 complete control): 90%; pest or weed control at 125 g/ha ([4]; visual injury after approx. 10 d, 0 to 100 scale, 0 no effect, 100 complete control, read-out: Plant response rating, Foxtail, Giant): 80%; pest or weed control at 125 g/ha ([5]; visual injury after approx. 10 d, 0 to 100 scale, 0 no effect, 100 complete control, read-out: Plant response rating, Pigweed): 30%; pest or weed control at 125 g/ha ([6]; visual injury after approx. 10 d, 0 to 100 scale, 0 no effect, 100 complete control, read-out: Plant response rating, Ragweed): 0%; pest or weed control at 125 g/ha ([7]; visual injury after approx. 10 d, 0 to 100 scale, 0 no effect, 100 complete control, read-out: Plant response rating, Ryegrass, Italian): 70%; plant injury at 125 g/ha ([8]; visual injury after approx. 10 d, 0 to 100 scale, 0 no effect, 100 complete control, read-out: Plant response rating, Wheat): 60%; pest or weed control at 250 g/ha ([9]; 360 h, visually evaluated after 13 to 15 d, read-out: Plant response rating, Barnyardgrass (0 to 100 scale where 0 is no effect and 100 is complete control)): 60%; pest or weed control at 250 g/ha ([10]; 360 h, visually evaluated after 13 to 15 d, read-out: Plant response rating, Ducksalad (0 to 100 scale where 0 is no effect and 100 is complete control)): 100%; pest or weed control at 250 g/ha (rice (Oryra sativa); 360 h, visually evaluated after 13 to 15 d, read-out: Plant response rating, Rice (0 to 100 scale where 0 is no effect and 100 is complete control)): 15%
CN1C[C@H](c2ccc3c(c2)CCO3)[C@@H](C(=O)Nc2ccc(F)c(F)c2F)C1=O [Compound 1323]	50	60	0	70	90	90	50	60	50	70	90	90	0	0	0	50	40	70	70	0	plant injury at 125 g/ha [8, 28]: 50%; pest or weed control at 250 g/ha [9, 30]: 90%; pest or weed control at 250 g/ha [10, 31]: 85%; pest or weed control at 250 g/ha (rice (Oryra sativa); [32]): 10%

— patent US12077503B2, “Substituted cyclic amides and their use as herbicides” (FMC CORPORATION, priority 2015, dated 2024)
